Active and inactive are the calls of the source. The rule behind the calls is not given here.
What was measured:
HeLa = assay: In vitro antiproliferative activity against human cervix adenocarcinoma (HeLa) cells; format: functional, cell-based
Cavia porcellus [1] = species: Cavia porcellus; assay: Phototoxicity (50 mg cm e-2) was evaluated; No phototoxicity; format: functional, organism-based
HL-60 = assay: In vitro antiproliferative activity against human promyelocytic (HL-60) cells; format: functional, cell-based
Cavia porcellus [2] = assay: Compound was evaluated for the erythema formation; +++ means severe erythema with edema; format: functional, organism-based
Cavia porcellus [3] = species: Cavia porcellus; assay: Phototoxicity (10 mg/cm**2) was evaluated; highly toxic; format: functional, organism-based

IC50 (HeLa) [µM]	IC50 (HL-60) [µM]	Structure (SMILES)	Phototoxicity (Cavia porcellus [1])	Erythema formation (Cavia porcellus [2])	Phototoxicity (Cavia porcellus [3])
> 20	6.95	Cc1cc(=O)oc2c1c(O)cc1oc3ccccc3c12	No phototoxicity		
1.12	0.52	Cc1cc(=O)oc2c1c(OCCCN(C)C)cc1oc3ccccc3c12	No phototoxicity		
> 20	> 20	COc1cc2oc3ccccc3c2c2oc(=O)cc(C)c12	No phototoxicity		
10	5.4	COc1c2occc2cc2ccc(=O)oc12 [METHOXSALEN]		Active	Toxic
